The values that follow come from patent US20150125889A1, “IN VITRO DETECTION OF MICROORGANISMS WITH AZOREDUCTASE ACTIVITY” (BIOMÉRIEUX, priority 2012, published 2015).

A short description of the test: Test of reduction of Methyl red by food matrices (Example 3). On the set-up: key to Increase in fluorescence over 24 hours: The symbol “−” means that there is no growth or increase in fluorescence of the medium indicating a reduction of the substrate over 24 hours. Particulars: for Increase in fluorescence over 24 hours: 35 mg/l of Methyl red in TSB, 250 nm/395 nm, 35° C. On the procedure: Nine food matrices, some of which have high enzymatic activity (for which the use of Tempo®TVC is not recommended), listed in Table VIII, are tested, in a microtitration plate, in the presence of 35 mg/l of Methyl red in TSB medium to which is added an antimicrobial cocktail combining 200 mg/l of chloramphenicol and 6 mg/l of gentamycin to inhibit the growth of bacteria and fungi. The matrices are tested at different concentrations: 1/400, 1/4000 and […]. To do this, 10 g of matrices are weighed out and dispersed by stomaching in 90 ml of Tryptone-salt solution, which corresponds to a 1/10 dilution, from which the test dilutions are made. The reduction of the substrate and the growth of the microorganisms are monitored using an Infinite® M200 Tecan microplate reader at 35° C. over 24 hours. The reduction of the Methyl red is monitored by reading the fluorescence with the wavelength pair 250 nm/395 nm. The potential growth of microorganisms is monitored by reading the absorbance at 660 nm. The symbol “−” means that there is no growth or increase in fluorescence of the medium indicating a reduction of the substrate over 24 hours.

As for `CN(C)c1ccc(/N=N/c2ccccc2C(=O)O)cc1` [Methyl red], the “Increase in fluorescence over 24 hours” value by setting is: (Avocado + ATB) “−”; (Brie de Meaux AOC cheese + ATB) “−”; (Fresh tagliatelle + ATB) “−”; (Melon + ATB) “−”; (Microfiltered whole milk + ATB) “−”; (Mussels + ATB) “−”. Besides, the “Increase in fluorescence over 24 hours” value by setting is: (Pink shrimps + ATB) “−”; (Raw calf liver + ATB) “−”; (Salami + ATB) “−”. Also, the “reduction of the Methyl red by the food matrix (text on Table IX)” value (nine food matrices with antimicrobial cocktail, no growth of microorganisms) is reported as “no reduction”.
